Assay results taken from ChEMBL document CHEMBL1128080, “Structural Factors affecting the kinetics of O,N-acyl transfer in potential O-peptide prodrugs” (Bioorg Med Chem Lett, 1995).

Experiment: Half-life for the conversion of compound to the corresponding N-peptide under pseudo physiological conditions (0.04 M phosphate, pH 7.4 and 37 degree C)
Assay type: ADME
Conditions: phosphate buffer

SMILES | half-life [h]
CCC(NC(=O)C(NC)C(OC(=O)C(NC(=O)OCc1ccccc1)C(C)C)C(C)C)C(=O)NCCc1ccc(OC)c(OC)c1 (stereo not drawn) | 1.58
CCC(NC(=O)C(N)C(OC(=O)C(NC(=O)OCc1ccccc1)C(C)C)C(C)C)C(=O)NCCc1ccc(OC)c(OC)c1 (stereo not drawn) | 0.0667
CNC1C(=O)NCCCCN(C)C(C(C)C)C(=O)OC1C(C)C (stereo not drawn) | 6.17
